The nature of assay [1]: Selectivity ratio of IC50 for inhibition of human muscarinic acetylcholine M2 receptor to IC50 for inhibition of human muscarinic acetylcholine M4 receptor expressed in CHO cells co-expressing Gqi5 in the presence of acetylcholine at EC80 concentration by calcium mobilization assay. The format is cell-based. (Calcium assays in cells follow changes in intracellular calcium, usually with a dye or a luminescent sensor.)

In assay [2] the target is T1, Muscarinic acetylcholine receptor M4 (Homo sapiens, UniProt P08173).
T1 sequence (P08173 whole entry): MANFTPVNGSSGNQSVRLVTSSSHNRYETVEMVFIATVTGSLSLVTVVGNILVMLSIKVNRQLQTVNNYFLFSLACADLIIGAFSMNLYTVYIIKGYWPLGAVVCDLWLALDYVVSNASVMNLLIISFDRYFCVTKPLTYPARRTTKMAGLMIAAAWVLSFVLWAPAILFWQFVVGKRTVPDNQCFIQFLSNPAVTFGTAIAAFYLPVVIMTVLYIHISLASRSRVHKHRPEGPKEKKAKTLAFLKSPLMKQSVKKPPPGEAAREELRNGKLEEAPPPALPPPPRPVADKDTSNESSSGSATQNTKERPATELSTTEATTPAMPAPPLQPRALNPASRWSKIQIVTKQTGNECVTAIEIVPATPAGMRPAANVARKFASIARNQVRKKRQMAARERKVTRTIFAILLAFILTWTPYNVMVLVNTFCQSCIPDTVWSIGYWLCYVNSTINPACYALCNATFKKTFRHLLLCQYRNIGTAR
In words: Displacement of [3H]-NMS from human muscarinic acetylcholine M4 receptor expressed in CHO cell membrane by competitive binding assay. The format is cell membranes.

What is called Ki is the dissociation constant of the complex between target and ligand, obtained from inhibition or displacement.

The structures appear in SMILES notation.

For the molecule `CC(=O)Nc1ccc(-c2ccc(NC[C@@H]3CC34CCN(CC3CCOCC3)CC4)nn2)cc1`, in assay [1], the Ratio IC50 was above 140. Besides, the affinity in assay [2] corresponds to a Ki of 43.3 nM.

(Values after ChEMBL document CHEMBL5131409, “Synthesis and characterization of chiral 6-azaspiro[2.5]octanes as potent and selective antagonists of the M4 muscarinic acetylcholine receptor” (Bioorg Med Chem Lett, 2022).)
